The text below walks through data of ChEMBL document CHEMBL1201862, “PubChem BioAssay data set” (2004).

Some test systems named below: HCT-15; M14; CAKI-1; HCC 2998; SF-295; Malme-3M; KM12; COLO 205; IGROV-1; UO-31; RPMI-8226; A549; A498; SK-MEL-5; HL-60.
Holding throughout (assay): growth of human tumour cells (NCI), 48 h

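In this assay, cells in 96-well plates receive the compound at five concentrations for 48 hours. Endpoints are linearly interpolated between the surrounding concentrations. The concentration for 50% growth inhibition is given as GI50.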 Calls of active or inactive are those of the source. Rule as the data show it: active = GI50 up to about 1.1 µM and inactive = higher.

In the case of `Cn1nc2ccccc2cc1=O`, the GI50 in the test with HCT-15 was above 100 µM; in the test on M14, > 100 µM (inactive); in the test on CAKI-1, > 100 µM (inactive); with HCC 2998 it was > 100 µM (inactive); in the test on SF-295 it was > 100 µM (inactive); in the test on Malme-3M it was > 100 µM (inactive). Further, the GI50 in the test with KM12, in the test with COLO 205, in the test on IGROV-1, with UO-31, in the test on RPMI-8226 and in the test with A549 was > 100 µM (inactive) in each case. In addition, the GI50 in the test with A498 and in the test with SK-MEL-5 was > 100 µM (inactive) in each case.

For `COc1ccc(/C(=N/NC(N)=O)C(c2ccc(OC)cc2)C2C(=O)Oc3ccccc32)cc1` (stereo not drawn), the GI50 was above 100 µM in the test on HCT-15; > 100 µM (inactive) in the test with M14; > 100 µM (inactive) with HL-60; > 100 µM (inactive) in the test on CAKI-1; > 100 µM (inactive) in the test with HCC 2998; > 100 µM (inactive) in the test with SF-295. The GI50 with Malme-3M is > 100 µM (inactive); with KM12, > 100 µM (inactive); in the test with COLO 205, > 100 µM (inactive); in the test on IGROV-1 it was > 100 µM (inactive); in the test on UO-31 it was 35 µM (inactive); with RPMI-8226, > 100 µM (inactive). Further, the GI50 in the test with A549 and in the test on SK-MEL-5 was > 100 µM (inactive) each time.

With `CCCCOP1(=O)C=C(C)C(=C(Cl)Cl)C(C)=C1` (stereo not drawn), the GI50 in the test with HCT-15 was 11.5 µM; in the test on M14 it was 11.6 µM (inactive); with HL-60, 2.4 µM (inactive); in the test on CAKI-1, 5.83 µM (inactive); in the test with HCC 2998 it was 22.3 µM (inactive); in the test with SF-295 it was 6.61 µM (inactive). Besides, the GI50 is 14.1 µM (inactive) with Malme-3M; 2 µM (inactive) in the test with KM12; 5.25 µM (inactive) with COLO 205; 14.8 µM (inactive) with IGROV-1; 19.5 µM (inactive) in the test on UO-31; 2.74 µM (inactive) with RPMI-8226. For the same molecule, the GI50 with A549 is 6.58 µM (inactive); in the test on SK-MEL-5, 3.84 µM (inactive).

On to `O=c1[nH]nc2c3n[nH]c(=O)n3c3ccccc3n12`, for which the GI50 was above 100 µM with HCT-15; > 100 µM (inactive) in the test with M14; > 100 µM (inactive) with CAKI-1; > 100 µM (inactive) in the test on HCC 2998; > 100 µM (inactive) in the test on SF-295; > 100 µM (inactive) in the test on Malme-3M. For the same molecule, the GI50 in the test with KM12 is > 100 µM (inactive); in the test with COLO 205 it was > 100 µM (inactive); with IGROV-1, > 100 µM (inactive); in the test on UO-31, 49.3 µM (inactive); in the test with RPMI-8226, > 100 µM (inactive); with A549, > 100 µM (inactive). The GI50 was 47.1 µM (inactive) in the test on A498 and > 100 µM (inactive) in the test with SK-MEL-5.

Consider `OC12CC/C(=N/OCc3ccccc3)CC1c1ccccc12` (stereo not drawn), for which the GI50 in the test with HCT-15 is above 100 µM; in the test with M14, > 100 µM (inactive); in the test with HL-60 it was > 100 µM (inactive); in the test with CAKI-1, > 100 µM (inactive); with HCC 2998 it was > 100 µM (inactive); in the test with SF-295 it was > 100 µM (inactive). The GI50 in the test on Malme-3M, in the test on KM12, in the test with COLO 205, with IGROV-1, in the test on UO-31 and in the test on RPMI-8226 was > 100 µM (inactive) each time. Further, the GI50 with A549 and with SK-MEL-5 was > 100 µM (inactive) each time.

As for `CCCCCCCCCCCCNC1(C)CNCCCNCCNCCCNC1`, the GI50 was 1.79 µM (inactive) in the test with M14; 0.726 µM (active) with HL-60; 1.87 µM (inactive) in the test with CAKI-1; 1.79 µM (inactive) with HCC 2998; 1.51 µM (inactive) with SF-295; 2.01 µM (inactive) with Malme-3M. The GI50 in the test with KM12 was 1.53 µM (inactive); with COLO 205, 1.74 µM (inactive); in the test on IGROV-1 it was 1.07 µM (active); in the test on UO-31, 2.29 µM (inactive); in the test on RPMI-8226, 1.63 µM (inactive); in the test on A549 it was 1.76 µM (inactive). In addition, the GI50 in the test on SK-MEL-5 was 1.68 µM (inactive).
